Here are results for 8 compounds from PMC11711184, “Structural basis of THC analog activity at the Cannabinoid 1 receptor” (Nature Communications, 2025).

In the test the target is T1, CB1 (CB1-Nluc) (Homo sapiens, UniProt P21554).
T1 construct: gene CNR1; CB1 with C-terminal NanoLuc (CB1-Nluc), stably co-expressed in HEK293-TR cells with NES-venus-mini-Gsi (Gs-based chimera with Gi1 C-terminal residues) as BRET acceptor
In words: NanoBRET venus-mini-Gsi recruitment. The class given is cell-based.

T1 sequence (P21554 whole entry): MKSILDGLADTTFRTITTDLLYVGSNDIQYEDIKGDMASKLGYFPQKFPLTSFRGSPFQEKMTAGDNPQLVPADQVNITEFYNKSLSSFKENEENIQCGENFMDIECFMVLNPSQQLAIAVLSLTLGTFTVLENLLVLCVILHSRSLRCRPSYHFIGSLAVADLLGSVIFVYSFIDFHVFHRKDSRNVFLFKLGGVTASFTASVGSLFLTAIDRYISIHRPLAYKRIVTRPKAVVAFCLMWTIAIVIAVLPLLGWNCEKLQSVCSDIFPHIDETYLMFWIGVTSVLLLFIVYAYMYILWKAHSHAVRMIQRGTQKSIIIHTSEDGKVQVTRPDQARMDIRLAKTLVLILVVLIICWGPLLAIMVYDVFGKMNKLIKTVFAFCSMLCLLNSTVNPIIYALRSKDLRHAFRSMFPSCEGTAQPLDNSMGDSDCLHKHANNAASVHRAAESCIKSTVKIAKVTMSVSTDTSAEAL

For `CC(C)(CCCCCCN=C=S)c1cc(O)c2c(c1)OC(C)(C)[C@@H]1CC[C@@H](CO)C[C@@H]21` [AM841, (6aR,9 R,10aR)-9-(hydroxymethyl)-3-(8-isothiocyanato-2-methyloctan-2-yl)-6,6-dimethyl-6a,7,8,9,10,10a-hexahydro-6H-benzo[c]chromen-1-ol], it took 3.39 nM to reach a half-maximal effect (EC50).

On to `CC1=CC[C@@H]2[C@@H](C1)c1c(O)cc(C(C)(C)CCCCCCBr)cc1OC2(C)C` [AM11542, (6aR,10aR)-3-(8-bromo-2-methyloctan-2-yl)-6,6,9-trimethyl-6a,7,10,10a-tetrahydro-6H-benzo[c]chromen-1-ol], for which the half-maximal effective concentration (EC50) (as a rule, the concentration giving half of the maximal effect) is 3.39 nM. For `CCCCCCC(C)(C)c1cc(O)c2c(c1)OC(C)(C)[C@@H]1CC=C(CO)C[C@@H]21` [HU210, (6aR)-trans-3-(1,1-Dimethylheptyl)-6a,7,10,10a-tetrahydro-1-hydroxy-6,6-dimethyl-6H-dibenzo[b,d]pyran-9-methanol] the value was 2.4 nM; for `CCCCCCC(C)(C)c1cc(O)c2c(c1)OC(C)(C)[C@@H]1CC[C@@H](CO)C[C@@H]21` [HU243], 2.04 nM. Under `CCCC(C)(C)c1ccc2c(c1)OC(C)(C)[C@@H]1CC=C(C)C[C@@H]21` [JWH133, (6aR,10aR)-3-(1,1-Dimethylbutyl)-6a,7,10,10a-tetrahydro-6,6,9-trimethyl-6H-dibenzo[b,d]pyran] stands 1150 nM. Under `CCCCCCC(C)(C)c1cc(OC)c2c(c1)OC(C)(C)[C@@H]1CC=C(C)C[C@@H]21` [L759633] stands 417 nM. Take `CCCCCCC(C)(C)c1cc(O)c2c(c1)OC(C)(C)C1CCC(=O)CC21` (centres unmarked) [Nabilone]: a half-maximal response (EC50) required 13.8 nM. Under `CCCc1cc(O)c2c(c1)OC(C)(C)[C@@H]1CCC(C)=C[C@@H]21` [THCv] stands 200 nM.
